Measurements published in paper PMC4729491, “The Cellular Thioredoxin-1/Thioredoxin Reductase-1 Driven Oxidoreduction Represents a Chemotherapeutic Target for HIV-1 Entry Inhibition” (PLoS ONE, 2016).

What was measured:
TrxR1 = molecular target: T1, TrxR1 (Homo sapiens, UniProt Q16881); assay: Inhibition of TrxR1-dependent reduction of HIV-1 gp120 (ELISA); type: biochemical; conditions: 100 μM compound; 1 μM Trx1 + 100 nM TrxR1 + 240 μM NADPH; control without compound 38–54%
T1 construct: purchased IMCO Corporation (Stockholm, Sweden) or Sino Biological Inc (Zoersel, Belgium)
T1 sequence (Q16881 1-499 isoform Q16881-5): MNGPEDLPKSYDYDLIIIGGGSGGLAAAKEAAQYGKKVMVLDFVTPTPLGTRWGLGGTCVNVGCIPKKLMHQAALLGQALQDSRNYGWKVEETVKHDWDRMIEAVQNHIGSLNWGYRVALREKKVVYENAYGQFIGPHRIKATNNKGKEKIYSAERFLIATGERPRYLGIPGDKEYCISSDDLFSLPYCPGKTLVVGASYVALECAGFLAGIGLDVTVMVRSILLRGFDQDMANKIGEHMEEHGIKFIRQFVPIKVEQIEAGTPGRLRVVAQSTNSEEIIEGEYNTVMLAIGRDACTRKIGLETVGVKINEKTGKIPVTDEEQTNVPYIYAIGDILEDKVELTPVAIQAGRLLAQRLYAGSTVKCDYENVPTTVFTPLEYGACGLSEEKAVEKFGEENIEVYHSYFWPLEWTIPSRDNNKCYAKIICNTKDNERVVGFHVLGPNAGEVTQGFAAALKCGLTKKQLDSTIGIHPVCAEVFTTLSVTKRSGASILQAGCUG
Method: After coating 96-well Maxi-Sorp ELISA plates (Nunc Inc, Roskilde, Denmark) with 100 μl gp120 in PBS (2 μg/ml), these were blocked with PBST (phosphate buffered saline, pH 7.4 with 0.05% Tween 20) as described before). The experiment was performed with two different set-ups for each compound, but each reaction mixture contained 1 μM Trx1 + 100 nM TrxR1 + 240 μM NADPH + 100 μM of the compounds, with auranofin as an inhibition control. In the first set-up (TrxR1 + Trx1), the reaction mixtures were pre-incubated for 15 min at 37°C in the absence of the compounds, which were added after the preincubation period. In the second set-up (TrxR1 + compounds), the reaction mixtures were exposed to the different compounds, but in the absence of Trx1, which was added after the 15 min pre-incubation period. The reaction mixtures were then added to the gp120-coated wells to allow the reduction of gp120, incubated for 15 min at 37°C and then washed four times with PBST to remove any unbound material. Subsequently, the wells were incubated with 2 μM biotin-maleimide for 30 min at room temperature, then washed and incubated with steptavidine-ALP (diluted 1:1000) at room temperature. […] The absorbance at 405 nm was measured using a microplate reader (Wallac Perkin-Elmer).

[1] = tested on: HuT-78/HIV-1 and Sup-T1 cells; assay: cells; type: cell-based; conditions: cocultures of HuT-78/HIV-1(IIIB) and Sup-T1 cells; data not shown
Method: Persistently infected HuT-78/HIV-1 cells were thoroughly washed to eliminate free virions. Next, 1 x 10^5 HuT-78/HIV-1 cells were co-cultivated with 1 x 10^5 Sup-T1 cells in 96-well plates (200 μl/well) during 20 h at 37°C, in the presence or absence of a serial dilution of compound. Afterwards, the formation of syncytia was evaluated microscopically. The EC50 was defined as the compound concentration required to suppress syncytia formation by 50%.

HIV = tested on: HIV; design: method as in PMID 8895167; conditions: cited from earlier work
[2] = molecular target: T2, HIV-1 reverse transcriptase (Human immunodeficiency virus type 1 group M subtype B, UniProt P04585); assay: Reverse transcriptase inhibition (Lenti RT Activity kit); type: biochemical; conditions: 25 μM; poly-A template, overnight
Method: The ability of the compounds to inhibit the activity of viral RT was determined by a Lenti RT Activity kit (Cavidi, Uppsala, Sweden) according to the manufacturer’s instructions. A poly-A-coated plate was incubated with the reaction bufferfor up to 1 h at 33°C. Then, a mixture of the virus preparation (see virus expression) and 25 μM of the test compounds or an inhibitor control (nevirapin) were added to the RT assay mixture and incubated overnight at 33°C. The plate was washed, exposed to the provided tracer for 90 min at 33°C and washed again, before the provided substrate was added to quantify the RT reaction that took place. The plate was incubated in the dark for 30 min and subsequently read at 405 nm in a Labsystem Multiskan RC (Artisan Technology Group, Champaign, IL, USA).

[3] = molecular target: T2, HIV-1 reverse transcriptase; design: method as in PMID 1376314; conditions: template poly rC.dG versus other templates ref 38; cited from earlier work
HIV-1 = assay: Infectivity assay in TZM-bl cells (luciferase); conditions: 10 μM, 40 h
Method: TZM-bl cells (1 x 10^5) were infected with diluted virus suspension (see virus expression) in a total volume of 0.2 ml DMEM medium in the presence of the compounds or an inhibitor control (nevirapine). After 40 h at 37°C, the luminescence was assayed and quantified in a Luminoskan Ascent (Thermo Labsystems, Schwerte, Germany) for luciferase activity using the OneGlo luciferase assay system (Promega, Nacka, Sweden).

Compound	reduction of gp120 disulfide bonds, % of DTT (set at 100%) (TrxR1)	inhibition of syncytium formation [1]	CD4 counts (HIV; HIV-infected patients ref 9)	plasma HIV-RNA counts (HIV; HIV-infected patients treated for rheumatoid arthritis ref 9)	inhibition of RT polymerase activity [2]	better inhibition efficacy with poly rC.dG than other templates [3]	inhibition of luminescence signal (HIV infection of TZM-bl) (HIV-1)
CC(=O)OC[C@H]1O[C@@H]([S-])[C@H](OC(C)=O)[C@@H](OC(C)=O)[C@@H]1OC(C)=O.CCP(CC)CC.[Au+] [auranofin]	6–10%	failed to inhibit syncytium formation	increased the CD4 counts	lowered	–	–	–
Cc1ccnc2c1NC(=O)c1cccnc1N2C1CC1 [nevirapine]	–	–	–	–	pronounced, however not complete inhibitory activity	~ 10 fold	full inhibition
